The assay relates to Alpha smooth muscle actin (α-SMA) levels. Description: α-SMA levels by Western blot in TGF-β-treated normal human lung fibroblasts (headed Cell Proliferation Assay). The class given is cell-based. Conditions: 10 ng/mL TGF-β, 24 h; for Relative α-SMA 5 μM / Relative α-SMA 20 μM: Table 4; for Relative α-SMA 5 μM: compound 5 μM; for Relative α-SMA 20 μM: compound 20 μM. As to the method:
Normal human lung fibroblasts were plated in a 6-well plate at 100,000 cells per well in 1 mL of DMEM supplemented with 10% FBS. The cells were incubated overnight at 37° C. under 5% CO2. The next day, the cells were serum starved (medium was removed and 1 mL of fresh DMEM without serum was added). The cells were incubated overnight.
The cells were treated with a test compound in DMEM, 5% FBS in the presence of 10 ng/mL TGF-β and incubated for 24 h. The cells were lysed with an M-PER buffer. Alpha smooth muscle actin (α-SMA) levels were determined by Western blot and normalized to 0-tubulin levels using cell signaling antibodies. Blots were probed with secondary antibodies from LI-COR® Biosciences and read using a scanner from LI-COR® Biosciences. Quantification was also done using a software from LI-COR® Biosciences. The results are shown in Tables 1 to 4 below, where the control (Ctrl) is the fibroblasts in the absence of TGF-β and a test compound.

The mark [1] stands for this setting: single agent 5 μM, TGF-β alone = 1 (Tables 1-3).
Setting [2] is: single agent 10 μM, TGF-β alone = 1.
The mark [3] stands for this setting: single agent 20 μM, TGF-β alone = 1 (Tables 1-3).

The source of these data is patent US20230201144A1, “BIARYLSULFONAMIDES AND PHARMACEUTICAL COMPOSITIONS THEREOF, AND THEIR USE FOR TREATING FIBROTIC LUNG DISEASE” (NovoMedix, LLC, priority 2020, published 2023).

The structures appear in SMILES notation. Values joined by “and” are separate entries in the source; they are usually repeats but may differ in a detail not shown here. Identical values can stand only once.

Consider `Cc1cc(NS(=O)(=O)c2c(C(C)C)cc(C(C)C)cc2C(C)C)cc(C(F)(F)F)c1` [A1, 2,4,6-Triisopropyl-N-(3-methyl-5-(trifluoromethyl)phenyl)benzenesulfonamide], for which the “Relative α-SMA 5 μM” value came out at 0.98 and the “Relative α-SMA 20 μM” value is 0.37. Consider `COC(=O)c1cc(NS(=O)(=O)c2c(C(C)C)cc(C(C)C)cc2C(C)C)cc(C(F)(F)F)c1` [A2, Methyl 3-(trifluoromethyl)-5-((2,4,6-triisopropylphenyl)sulfonamido)benzoate], for which the “Relative α-SMA 5 μM” value is on record as 1.05 and the “Relative α-SMA 20 μM” value amounted to 0.23. For the compound `CC(C)c1cc(C(C)C)c(S(=O)(=O)Nc2cc(C(=O)O)cc(C(F)(F)F)c2)c(C(C)C)c1` [A3, 3-(Trifluoromethyl)-5-((2,4,6-triisopropylphenyl)sulfonamido)benzoic acid], the “Relative α-SMA 5 μM” value is listed as 0.79 and the “Relative α-SMA 20 μM” value is 0.73. As for `CCCCNC(=O)c1cc(NS(=O)(=O)c2c(C(C)C)cc(C(C)C)cc2C(C)C)cc(C(F)(F)F)c1` [A4, N-Butyl-3-(trifluoromethyl)-5-((2,4,6-triisopropylphenyl)sulfonamido)benzamide], the “Relative α-SMA 5 μM” value is 1.30 and the “Relative α-SMA 20 μM” value is reported as 0.46. Regarding `CC(C)c1cc(C(C)C)c(S(=O)(=O)Nc2cc(NC(=O)OC(C)(C)C)cc(C(F)(F)F)c2)c(C(C)C)c1` [A5, Tert-butyl (3-(trifluoromethyl)-5-((2,4,6-triisopropylphenyl)sulfonamido)-phenyl)carbamate], the “Relative α-SMA 5 μM” value came to 0.95 and the “Relative α-SMA 20 μM” value was found to be 0.21. Take `CC(C)c1cc(C(C)C)c(S(=O)(=O)Nc2cc(N)cc(C(F)(F)F)c2)c(C(C)C)c1` [A6, N-(3-Amino-5-(trifluoromethyl)phenyl)-2,4,6-triisopropylbenzenesulfonamide]: the “Relative α-SMA 5 μM” value is 1.08 and the “Relative α-SMA 20 μM” value was 0.05. With `CC(=O)Nc1cc(NS(=O)(=O)c2c(C(C)C)cc(C(C)C)cc2C(C)C)cc(C(F)(F)F)c1` [A7, N-(3-(Trifluoromethyl)-5-((2,4,6-triisopropylphenyl)sulfonamido)phenyl)-acetamide], the “Relative α-SMA 5 μM” value worked out at 1.60 and the “Relative α-SMA 20 μM” value came out at 0.33. As for `CCN(CC)c1cc(NS(=O)(=O)c2c(C(C)C)cc(C(C)C)cc2C(C)C)cc(C(F)(F)F)c1` [A8, N-(3-(Diethylamino)-5-(trifluoromethyl)phenyl)-2,4,6-triisopropylbenzenesulfonamide], the “Relative α-SMA 5 μM” value is 0.88 and the “Relative α-SMA 20 μM” value is 0.33. As to `Cc1cc(C(C)(C)C)cc(C)c1S(=O)(=O)Nc1cc(OCCCC#N)cc(C(F)(F)F)c1` [A9, 4-(Tert-butyl)-N-(3-(3-cyanopropoxy)-5-(trifluoromethyl)phenyl)-2,6-dimethylbenzenesulfonamide], the “Relative α-SMA 5 μM” value is on record as 1.05 and the “Relative α-SMA 20 μM” value is on record as 0.78. In the case of `Cc1cc(C(C)(C)C)cc(C)c1S(=O)(=O)Nc1cc(OCCCCN)cc(C(F)(F)F)c1` [A10, N-(3-(4-Aminobutoxy)-5-(trifluoromethyl)phenyl)-4-(tert-butyl)-2,6-dimethylbenzenesulfonamide], the “Relative α-SMA 5 μM” value is reported as 0.69.

`CC(C)c1cc(C(C)C)c(S(=O)(=O)Nc2cc(OCCCCN)cc(C(F)(F)F)c2)c(C(C)C)c1` [A11, N-(3-(4-Aminobutoxy)-5-(trifluoromethyl)phenyl)-2,4,6-triisopropylbenzenesulfonamide]: the “Relative α-SMA 5 μM” value came to 0.85. `Cc1cc(C(C)(C)C)cc(C)c1S(=O)(=O)Nc1cc(OCCN(C)C)cc(C(F)(F)F)c1` [A12, 4-(Tert-butyl)-N-(3-(2-(dimethylamino)ethoxy)-5-(trifluoromethyl)phenyl)-2,6-dimethylbenzenesulfonamide]: the “Relative α-SMA 5 μM” value came to 0.37. The same measure, in the same setting: to `Cc1cc(C(C)(C)C)cc(C)c1S(=O)(=O)Nc1cc(CCCN(C)C)cc(C(F)(F)F)c1` [A13, 4-(Tert-butyl)-N-(3-(3-(dimethylamino)propyl)-5-(trifluoromethyl)phenyl)-2,6-dimethylbenzenesulfonamide] belongs 0.29; to `Cc1cc(C(C)(C)C)cc(C)c1S(=O)(=O)Nc1cc(CCCN2CCOCC2)cc(C(F)(F)F)c1` [A14, 4-(Tert-butyl)-2,6-dimethyl-N-(3-(3-morpholinopropyl)-5-(trifluoromethyl)-phenyl)benzenesulfonamide], 0.53; to `Cc1cc(C(C)(C)C)cc(C)c1S(=O)(=O)Nc1cc(C2CCN(C)CC2)cc(C(F)(F)F)c1` [A15, 4-(Tert-butyl)-2,6-dimethyl-N-(3-(1-methylpiperidin-4-yl)-5-(trifluoromethyl)-phenyl)benzenesulfonamide], 0.31. As for `Cc1cc(C(C)(C)C)cc(C)c1S(=O)(=O)Nc1cc(Br)cc(C(F)(F)F)c1` [A16, N-(3-Bromo-5-(trifluoromethyl)phenyl)-4-(tert-butyl)-2,6-dimethylbenzenesulfonamide], the “Relative α-SMA 5 μM” value stood at 0.35. Regarding `COc1cc(NS(=O)(=O)c2c(C)cc(C(C)(C)C)cc2C)cc(C(F)(F)F)c1` [A17, 4-(Tert-butyl)-N-(3-methoxy-5-(trifluoromethyl)phenyl)-2,6-dimethylbenzenesulfonamide], the “Relative α-SMA 5 μM” value was 0.46. `Cc1cc(C(C)(C)C)cc(C)c1S(=O)(=O)Nc1cc(O)cc(C(F)(F)F)c1` [A18, 4-(Tert-butyl)-N-(3-hydroxy-5-(trifluoromethyl)phenyl)-2,6-dimethylbenzenesulfonamide]: the “Relative α-SMA 5 μM” value was found to be 0.57 and the “Relative α-SMA 20 μM” value is listed as 0.28. Further, the “Relative α-SMA” value under setting [1] was 1.26. The “Relative α-SMA” value under setting [2] is 0.86. In addition, the “Relative α-SMA” value under setting [3] is given as 0.06. Turning to `COc1cc(NS(=O)(=O)c2c(C(C)C)cc(C(C)C)cc2C(C)C)c(C)c(C(F)(F)F)c1` [A19, 2,4,6-Triisopropyl-N-(5-methoxy-2-methyl-3-(trifluoromethyl)phenyl)-benzenesulfonamide], the “Relative α-SMA 5 μM” value is reported as 0.56. Regarding `Cc1c(NS(=O)(=O)c2c(C(C)C)cc(C(C)C)cc2C(C)C)cc(O)cc1C(F)(F)F` [A20, N-(5-Hydroxy-2-methyl-3-(trifluoromethyl)phenyl)-2,4,6-triisopropylbenzenesulfonamide], the “Relative α-SMA 5 μM” value is 0.27. For the compound `Cc1c(Br)cc(C(F)(F)F)cc1NS(=O)(=O)c1c(C(C)C)cc(C(C)C)cc1C(C)C` [A21, N-(3-Bromo-2-methyl-5-(trifluoromethyl)phenyl)-2,4,6-triisopropylbenzenesulfonamide], the “Relative α-SMA 5 μM” value came to 0.45. For `Cc1cc(C(C)(C)C)cc(C)c1S(=O)(=O)Nc1cc(C2CCNCC2)cc(C(F)(F)F)c1` [A22, 4-(Tert-butyl)-2,6-dimethyl-N-(3-(piperidin-4-yl)-5-(trifluoromethyl)phenyl)-benzenesulfonamide], the “Relative α-SMA 5 μM” value stood at 0.21 and the “Relative α-SMA 20 μM” value is listed as 0.12. For the compound `Cc1c(NS(=O)(=O)c2c(C(C)C)cc(C(C)C)cc2C(C)C)cc(C(F)(F)F)cc1C(F)(F)F` [B4, N-(2-methyl-3,5-bis(trifluoromethyl)phenyl)-2,4,6-triisopropyl-benzene-sulfonamide], the “Relative α-SMA” value stood at 0.95 (single agent 2 μM, normalized to tubulin, TGF-β alone = 1); 0.69 under setting [1]; 0.15 under setting [2]. With `Cc1cc(C(C)(C)C)cc(C)c1S(=O)(=O)Nc1cc(C(F)(F)F)cc(C(F)(F)F)c1` [B5, N-(3,5-bis(trifluoromethyl)phenyl)-4-(tert-butyl)-2,6-dimethylbenzene-sulfonamide], the “Relative α-SMA” value amounted to 0.91 under setting [1], 0.75 under setting [2] and 0.24 under setting [3]. In the case of `COC(=O)c1ccc2c(c1)NC(=O)/C2=C(\Nc1ccc(N(C)C(=O)CN2CCN(C)CC2)cc1)c1ccccc1` [N, nintedanib, reference compound], the “Relative α-SMA” value under setting [1] was 0.82 and 0.92 and 0.97. `Cc1ccc(=O)n(-c2ccccc2)c1` [P, pirfenidone, reference compound]: the “Relative α-SMA” value (single agent 200 μM, TGF-β alone = 1) is 1.29 and 1.02.
